Usually IC50 stands for the midpoint of a concentration-inhibition curve.

33 compounds from patent publication US7709471B2, “Compounds” (AstraZeneca AB, priority 2006, dated 2010) can be followed below.

The target of the assay is recombinant Plk1 (Homo sapiens, UniProt P53350). The assay can be described thus: In Vitro Plk1 Enzyme Assay (SPA, GST-Cdc25C phosphorylation). Type of assay: biochemical. To be noted: ATP 64 nM, 90 minutes, read-out: IC50 (Plk1 enzyme inhibition).
Sequence of recombinant Plk1 (P53350 whole entry): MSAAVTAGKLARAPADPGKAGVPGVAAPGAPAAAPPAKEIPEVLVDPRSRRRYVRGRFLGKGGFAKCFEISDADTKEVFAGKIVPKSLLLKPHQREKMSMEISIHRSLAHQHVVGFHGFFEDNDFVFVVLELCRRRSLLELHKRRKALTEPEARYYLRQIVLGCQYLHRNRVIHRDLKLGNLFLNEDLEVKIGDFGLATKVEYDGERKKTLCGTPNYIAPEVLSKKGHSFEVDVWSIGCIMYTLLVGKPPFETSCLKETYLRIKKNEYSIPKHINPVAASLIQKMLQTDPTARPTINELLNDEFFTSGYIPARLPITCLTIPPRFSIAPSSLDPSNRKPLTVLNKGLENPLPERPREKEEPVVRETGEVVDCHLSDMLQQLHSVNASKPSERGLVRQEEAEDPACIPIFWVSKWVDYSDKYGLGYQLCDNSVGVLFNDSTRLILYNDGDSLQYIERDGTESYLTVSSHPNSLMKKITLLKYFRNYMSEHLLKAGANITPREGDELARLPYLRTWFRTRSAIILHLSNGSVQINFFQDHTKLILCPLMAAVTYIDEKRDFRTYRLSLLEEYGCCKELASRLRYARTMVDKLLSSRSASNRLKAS
As to “6-cyclopentyl-2-methyl-9-[(2,3,4-trimethoxyphenyl)amino]-2,6,8,10-tetrazabicyclo[5.4.0]undeca-8,10,12-trien-3-one [Example 130]”, the IC50 was under 1 µM.
In the case of “6-cyclopentyl-2-methyl-9-[(2,4,6-trimethoxyphenyl)amino]-2,6,8,10-tetrazabicyclo[5.4.0]undeca-8,10,12-trien-3-one [Example 112]”, the IC50 is under 1 µM.
The figure for “6-cyclopentyl-9-[[5-(3-dimethylaminopyrrolidin-1-yl)-2-methoxy-phenyl]amino]-2-methyl-2,6,8,10-tetrazabicyclo[5.4.0]undeca-8,10,12-trien-3-one [Example 182]” is under 1 µM; for `CCCC1CN(C2CCCC2)c2nc(Nc3ccc(C(=O)NC4CCN(C)CC4)cc3OC)ncc2N(C)C1=O` (single isomer, unassigned) [Example 239] it is under 100 µM; for `COc1cc(C(=O)NC2CCN(C)CC2)ccc1Nc1ncc2c(n1)N(C1CCOCC1)CCC(=O)N2C` [Example 9, 3-Methoxy-4-[[6-methyl-2-(oxan-4-yl)-5-oxo-2,6,9,11-tetrazabicyclo[5.4.0]undeca-7,9,11-trien-10-yl]amino]-N-(1-methyl-4-piperidyl)benzamide] it is under 0.3 µM.
The same measure for `COc1cc(C(=O)NCCN2CCCCC2)ccc1Nc1ncc2c(n1)N(C1CCCC1)CCC(=O)N2C` [Example 12, 4-[(6-cyclopentyl-2-methyl-3-oxo-2,6,8,10-tetrazabicyclo[5.4.0]undeca-8,10,12-trien-9-yl)amino]-3-methoxy-N-[2-(1-piperidyl)ethyl]benzamide]: under 1 µM; for `COC(=O)[C@H]1CC[C@@H](NC(=O)c2ccc(Nc3ncc4c(n3)N(C3CCCC3)CCC(=O)N4C)c(OC)c2)C1` [Example 65, Methyl(1S,3R)-3-[[4-[(6-cyclopentyl-2-methyl-3-oxo-2,6,8,10-tetrazabicyclo[5.4.0]undeca-8,10,12-trien-9-yl)amino]-3-methoxy-benzoyl]amino]cyclopentane-1-carboxylate]: under 1 µM.
The same measure for `COc1cc(C(=O)N[C@@H]2CC[C@H](C(=O)O)C2)ccc1Nc1ncc2c(n1)N(C1CCCC1)CCC(=O)N2C` [Example 87, (1S,3R)-3-[[4-[(6-cyclopentyl-2-methyl-3-oxo-2,6,8,10-tetrazabicyclo[5.4.0]undeca-8,10,12-trien-9-yl)amino]-3-methoxy-benzoyl]amino]cyclopentane-1-carboxylic acid]: under 0.3 µM; for `CC(C)NC(=O)c1ccc(Nc2ncc3c(n2)N(C2CCCC2)CCC(=O)N3C)cc1` [Example 100, 4-[(6-cyclopentyl-2-methyl-3-oxo-2,6,8,10-tetrazabicyclo[5.4.0]undeca-8,10,12-trien-9-yl)amino]-N-propan-2-yl-benzamide]: under 0.3 µM.
As for `CNC(=O)c1ccc(Nc2ncc3c(n2)N(C2CCCC2)CCC(=O)N3C)cc1` [Example 102, 4-[(6-cyclopentyl-2-methyl-3-oxo-2,6,8,10-tetrazabicyclo[5.4.0]undeca-8,10,12-trien-9-yl)amino]-N-methyl-benzamide], the IC50 was under 0.3 µM.
For `COc1cc(C(=O)O)ccc1Nc1ncc2c(n1)N(C1CCCC1)CCC(=O)N2C` [Example 111, 4-[(2-cyclopentyl-6-methyl-5-oxo-2,6,9,11-tetrazabicyclo[5.4.0]undeca-7,9,11-trien-10-yl)amino]-3-methoxy-benzoic acid], the 50% inhibitory concentration (IC50) was under 0.3 µM.
The same measure for `CN1C(=O)CCN(C2CCCC2)c2nc(Nc3ccc(C#N)c(C(F)(F)F)c3)ncc21` [Example 116, 4-[(6-cyclopentyl-2-methyl-3-oxo-2,6,8,10-tetrazabicyclo[5.4.0]undeca-8,10,12-trien-9-yl)amino]-2-(trifluoromethyl)benzonitrile]: under 100 µM; for `CN1C(=O)CCN(C2CCCC2)c2nc(Nc3ccc(S(=O)(=O)NCCO)cc3)ncc21` [Example 117, 4-[(6-cyclopentyl-2-methyl-3-oxo-2,6,8,10-tetrazabicyclo[5.4.0]undeca-8,10,12-trien-9-yl)amino]-N-(2-hydroxyethyl)benzenesulfonamide]: under 100 µM; for `CN(C)CCOc1ccc(Nc2ncc3c(n2)N(C2CCCC2)CCC(=O)N3C)cc1` [Example 118, 6-cyclopentyl-9-[[4-(2-dimethylaminoethoxy)phenyl]amino]-2-methyl-2,6,8,10-tetrazabicyclo[5.4.0]undeca-8,10,12-trien-3-one]: under 100 µM.
`COc1ccc(Nc2ncc3c(n2)N(C2CCCC2)CCC(=O)N3C)cc1` [Example 120, 6-cyclopentyl-9-[(4-methoxyphenyl)amino]-2-methyl-2,6,8,10-tetrazabicyclo[5.4.0]undeca-8,10,12-trien-3-one]: the half-inhibitory concentration (IC50) is under 100 µM.
In the case of `CN1C(=O)CCN(C2CCCC2)c2nc(Nc3ccc(N4CCOCC4)cc3)ncc21` [Example 121, 6-cyclopentyl-2-methyl-9-[(4-morpholin-4-ylphenyl)amino]-2,6,8,10-tetrazabicyclo[5.4.0]undeca-8,10,12-trien-3-one], the IC50 is under 100 µM.
Consider `COc1cc(Nc2ncc3c(n2)N(C2CCCC2)CCC(=O)N3C)cc(OC)c1OC` [Example 129, 6-cyclopentyl-2-methyl-9-[(3,4,5-trimethoxyphenyl)amino]-2,6,8,10-tetrazabicyclo[5.4.0]undeca-8,10,12-trien-3-one], for which the IC50 is under 1 µM.
On to `CN1C(=O)CCN(C2CCCC2)c2nc(Nc3ccc(S(=O)(=O)N4CCCCC4)cc3)ncc21` [Example 134, 6-cyclopentyl-2-methyl-9-[[4-(1-piperidylsulfonyl)phenyl]amino]-2,6,8,10-tetrazabicyclo[5.4.0]undeca-8,10,12-trien-3-one], for which the IC50 is under 100 µM.
The figure for `CN1C(=O)CCN(C2CCCC2)c2nc(Nc3cccc(CNC(=O)OC(C)(C)C)c3)ncc21` [Example 136, tert-butyl N-[[3-[(6-cyclopentyl-2-methyl-3-oxo-2,6,8,10-tetrazabicyclo[5.4.0]undeca-8,10,12-trien-9-yl)amino]phenyl]methyl]carbamate] is under 100 µM; for `CN1C(=O)c2cccc(Nc3ncc4c(n3)N(C3CCCC3)CCC(=O)N4C)c2C1=O` [Example 137, 4-[(6-cyclopentyl-2-methyl-3-oxo-2,6,8,10-tetrazabicyclo[5.4.0]undeca-8,10,12-trien-9-yl)amino]-2-methyl-isoindole-1,3-dione] it is under 100 µM; for `COc1ccccc1Nc1ncc2c(n1)N(C1CCCC1)CCC(=O)N2C` [Example 139, 6-cyclopentyl-9-[(2-methoxyphenyl)amino]-2-methyl-2,6,8,10-tetrazabicyclo[5.4.0]undeca-8,10,12-trien-3-one] it is under 1 µM.
The figure for `CCOc1ccccc1Nc1ncc2c(n1)N(C1CCCC1)CCC(=O)N2C` [Example 140, 6-cyclopentyl-9-[(2-ethoxyphenyl)amino]-2-methyl-2,6,8,10-tetrazabicyclo[5.4.0]undeca-8,10,12-trien-3-one] is under 100 µM.
Take `CSc1ccccc1Nc1ncc2c(n1)N(C1CCCC1)CCC(=O)N2C` [Example 141, 6-cyclopentyl-2-methyl-9-[(2-methylsulfanylphenyl)amino]-2,6,8,10-tetrazabicyclo[5.4.0]undeca-8,10,12-trien-3-one]: the IC50 was under 100 µM.
The same measure for `CN1C(=O)CCN(C2CCCC2)c2nc(Nc3ccccc3O)ncc21` [Example 142, 6-cyclopentyl-9-[(2-hydroxyphenyl)amino]-2-methyl-2,6,8,10-tetrazabicyclo[5.4.0]undeca-8,10,12-trien-3-one]: under 0.3 µM; for `CN1C(=O)CCN(C2CCCC2)c2nc(Nc3ccccc3C(=O)c3ccccc3)ncc21` [Example 144, 9-[(2-benzoylphenyl)amino]-6-cyclopentyl-2-methyl-2,6,8,10-tetrazabicyclo[5.4.0]undeca-8,10,12-trien-3-one]: under 100 µM.
The same measure for `CN1C(=O)CCN(C2CCCC2)c2nc(Nc3ccccc3S(N)(=O)=O)ncc21` [Example 145, 2-[(6-cyclopentyl-2-methyl-3-oxo-2,6,8,10-tetrazabicyclo[5.4.0]undeca-8,10,12-trien-9-yl)amino]benzenesulfonamide]: under 100 µM; for `CN1C(=O)CCN(C2CCCC2)c2nc(Nc3ccccc3Oc3ccccc3)ncc21` [Example 146, 6-cyclopentyl-2-methyl-9-[(2-phenoxyphenyl)amino]-2,6,8,10-tetrazabicyclo[5.4.0]undeca-8,10,12-trien-3-one]: under 100 µM; for `CN1C(=O)CCN(C2CCCC2)c2nc(Nc3ccccc3Br)ncc21` [Example 147, 9-[(2-bromophenyl)amino]-6-cyclopentyl-2-methyl-2,6,8,10-tetrazabicyclo[5.4.0]undeca-8,10,12-trien-3-one]: under 100 µM.
The figure for `CN1C(=O)CCN(C2CCCC2)c2nc(Nc3ccccc3-c3ccccc3)ncc21` [Example 148, 6-cyclopentyl-2-methyl-9-[(2-phenylphenyl)amino]-2,6,8,10-tetrazabicyclo[5.4.0]undeca-8,10,12-trien-3-one] is under 100 µM; for `CN1C(=O)CCN(C2CCCC2)c2nc(Nc3ccccc3S(C)(=O)=O)ncc21` [Example 149, 6-cyclopentyl-2-methyl-9-[(2-methylsulfonylphenyl)amino]-2,6,8,10-tetrazabicyclo[5.4.0]undeca-8,10,12-trien-3-one] it is under 100 µM; for `CC(C)c1ccccc1Nc1ncc2c(n1)N(C1CCCC1)CCC(=O)N2C` [Example 150, 6-cyclopentyl-2-methyl-9-[(2-propan-2-ylphenyl)amino]-2,6,8,10-tetrazabicyclo[5.4.0]undeca-8,10,12-trien-3-one] it is under 1 µM.
On to `CCCCc1ccccc1Nc1ncc2c(n1)N(C1CCCC1)CCC(=O)N2C` [Example 151, 9-[(2-butylphenyl)amino]-6-cyclopentyl-2-methyl-2,6,8,10-tetrazabicyclo[5.4.0]undeca-8,10,12-trien-3-one], for which the IC50 was under 100 µM.
The same measure for `CN1C(=O)CCN(C2CCCC2)c2nc(Nc3ccccc3Oc3ccc(C(C)(C)C)cc3)ncc21` [Example 153, 6-cyclopentyl-2-methyl-9-[[2-(4-tert-butylphenoxy)phenyl]amino]-2,6,8,10-tetrazabicyclo[5.4.0]undeca-8,10,12-trien-3-one]: under 100 µM.
